Results published in patent US9879243B2, “Culture medium for cell growth and transfection” (LIFE TECHNOLOGIES CORPORATION, priority 2001, dated 2018).

Tests used:
293 cells [1] = assay: Effect of replacement compounds on the growth of 293 cells in 293 SFM without transferrin, three passages; type: cell-based, human; conditions: third passage
Sp2/0 cells = assay: Effect of replacement compounds on the growth of Sp2/0 cells in CD Hybridoma medium without transferrin, three passages; type: cell-based; conditions: third passage
CHO cells = assay: Effect of replacement compounds on the growth of CHO cells in CD CHO medium without transferrin, three passages; type: cell-based, Chinese hamster; conditions: third passage
Description: The ability of replacement compounds to support cellular growth in the absence of transferrin was evaluated using CHO cells maintained in CD CHO medium (Invitrogen Corporation, Carlsbad, Calif., the formulation of which is described in WO 98/08934). Stock cultures containing 5 μg/mL human holo-transferrin were prepared in CD CHO medium. For replacement compound evaluation, CHO cells were established in 125 mL shaker flasks at an initial viable seeding density of 1×10^5 cells/mL in a final volume of 20 mL. All cultures were maintained at 37° C. in humidified air containing 8% CO2. To eliminate transferrin carry-over effects, cells were subcultured at 4 day intervals for a total of three passages. Positive control cultures contained 5 μg/mL human holo-transferrin while negative control cultures were established in the absence of either transferrin or replacement compound. Replacement compound stocks were prepared at 0.1M-0.2M in ddH2O and solubilized when necessary using 5N NaOH or HCl. Iron complexes were established using 0.2M replacement compound and iron stocks mixed 1:1 (v/v) and incubated for 5-10 minutes at 22° C. All solutions containing replacement compounds were filter sterilized using a 0.22 μm Millex-GV filter prior to addition to transferrin and serum-free media.
Except where noted, replacement compounds were evaluated either alone or in combination with ferric chloride or ferrous sulfate at 25 μM, 50 μM and 100 μM. Values in the table represent the mean percentage of control growth for duplicate cultures determined at the third passage.
The ability of various replacement compounds to substitute for transferrin in the culture of CHO cells was determined. When added to the medium formulation un-complexed, the replacement compound is listed alone, when added as a complex with a transition metal, the source of the transition metal is listed with the metal binding compound.

293 cells [2] = assay: β-galactosidase expression after transfection (pCMV-SPORT-β-gal, LIPOFECTAMINE 2000) of 293 cells in monolayer culture, 24-well plates; type: cell-based, human; conditions: Table 8, replacement compounds 25 μM in test media, 24 hrs post-transfection
Description: When cultured in suspension, cells were split to 3×10^5 viable cells per ml at each passage. On the week of transfection cells were seeded at 3×10^5 viable cells per ml. After ˜48 hrs of growth (day 2) cells were vortexed for 30 seconds and counted and appropriate volumes used for transfection as described in procedures below.
In addition, the base media comprises 2.4 g/L NaHCO3, 2.98 g/L Hepes, 4 mM L-glutamine and 3 ml/L PLURONIC F-68 (Invitrogen Corp., Carlsbad, Calif.).
The osmolarity is adjusted to from about 275-310 mOsm, preferably about 280 mOsm and the pH is adjusted to from about 7.0 to about 7.45 preferably about 7.4 respectively.
Three wells were set up for each treatment. A volume of media corresponding to 3×10^6 viable cells was centrifuged. The supernatant was removed and the cells re-suspended in 600 μl test media. Each well of a 24 well plate received 200 μl of the re-suspended cells.
To prepare the nucleic acid for the transfection experiments, 93 μl test media+3 μl DNA+24 μl LIPOFECTAMINE 2000 were combined in a microfuge tube and complexed for 30 minutes. A 40 μl aliquot of complex was added to each well. 250 μl test media was added to each well five hours after addition of complex. The final cell concentration was 1×10^6 viable cells per well; the final DNA concentration was 1 μg per 1×10^6 viable cells and the final LIPOFECTAMINE 2000 concentration was 8 μl per 1×10^6 viable cells.
24 hrs post-transfection, samples were collected for β-galactosidase quantitation. The contents of duplicate wells were pooled (i.e. ˜2×10^6 cells for the assay) for each sample and transferred to a microfuge tube. The cells were centrifuged, the supernatant was removed and the cells were re-suspended in 1 ml of D-PBS. The cells were pelleted a second time and re-suspended in 1 ml of D-PBS. The samples were then stored at −70° C. Prior to the assay for β-galactosidase, samples were freeze-thawed a total of five times.
293 cells were grown in monolayer culture in the presence of the various replacement compounds indicated and transfection experiments performed as described above. The results are shown in Table 8 and the values are β-galactosidase activity expressed as nanograms of β-galactosidase per 2×10^6 cells. A comparison was made between the transfection efficiency of DNA complexes formed in D-MEM medium and DNA complexes formed in test medium. […]
For cells transfected in 24-well plates, cells densities used were 1×10^6 viable cells per well.

[3] = 25 μM, control 5 μg/mL human holo-transferrin, iron equimolar where combined
[4] = 50 μM, control 5 μg/mL human holo-transferrin
[5] = 100 μM, control 5 μg/mL human holo-transferrin
[6] = 25 μM, control 5 μg/mL human holo-transferrin

In the case of `[Cl][Fe]([Cl])[Cl]` [Ferric Chloride, reference compound], the “mean percentage of control growth” value (293 cells [1]; [3]) is reported as 87 percentage of control growth, the “mean percentage of control growth” value (293 cells [1]; [4]) is reported as 91 percentage of control growth and the “mean percentage of control growth” value (293 cells [1]; [5]) is reported as 109 percentage of control growth. For the same compound, the “mean percentage of control growth” value (Sp2/0 cells; [6]) was 55 percentage of control growth, the “mean percentage of control growth” value (Sp2/0 cells; 50 μM) was 73 percentage of control growth and the “mean percentage of control growth” value (Sp2/0 cells; 100 μM) was 74 percentage of control growth. For the same compound, the “mean percentage of control growth” value (CHO cells; [6]) was 56 percentage of control growth, the “mean percentage of control growth” value (CHO cells; 50 μM) was 85 percentage of control growth and the “mean percentage of control growth” value (CHO cells; 100 μM) was 101 percentage of control growth. For the same compound, the “β-galactosidase activity; D-MEM used for complexing, Test media to re-suspend cells” value (shortened to “β-galactosidase activity; D-MEM used”) (293 cells [2]) was 18 nanograms of β-galactosidase per 2×10^6 cells and the “β-galactosidase activity; Test Media used for complexing and to re-suspend cells” value (293 cells [2]) was 0 nanograms of β-galactosidase per 2×10^6 cells.

`O=S(=O)([O-])[O-].[Fe+2]` [Ferrous Sulfate, reference compound] was tested, and the “mean percentage of control growth” value (293 cells [1]; [3]) was 71 percentage of control growth, the “mean percentage of control growth” value (293 cells [1]; [4]) was 60 percentage of control growth and the “mean percentage of control growth” value (293 cells [1]; [5]) was 41 percentage of control growth. For the same compound, the “mean percentage of control growth” value (Sp2/0 cells; [6]) was 91 percentage of control growth, the “mean percentage of control growth” value (Sp2/0 cells; 50 μM) was 103 percentage of control growth and the “mean percentage of control growth” value (Sp2/0 cells; 100 μM) was 94 percentage of control growth. For the same compound, the “mean percentage of control growth” value (CHO cells; [6]) was 88 percentage of control growth, the “mean percentage of control growth” value (CHO cells; 50 μM) was 79 percentage of control growth and the “mean percentage of control growth” value (CHO cells; 100 μM) was 38 percentage of control growth. For the same compound, the “β-galactosidase activity; D-MEM used” value (293 cells [2]) was 258 nanograms of β-galactosidase per 2×10^6 cells and the “β-galactosidase activity; Test Media used for complexing and to re-suspend cells” value (293 cells [2]) was 406 nanograms of β-galactosidase per 2×10^6 cells.

Deferoxamine Mesylate•Ferric Chloride was tested, and the “mean percentage of control growth” value (293 cells [1]; 5 μM) was 101 percentage of control growth, the “mean percentage of control growth” value (293 cells [1]; 10 μM) was 120 percentage of control growth and the “mean percentage of control growth” value (293 cells [1]; 20 μM) was 127 percentage of control growth. For the same compound, the “mean percentage of control growth” value (Sp2/0 cells; 5 μM) was 0 percentage of control growth, the “mean percentage of control growth” value (Sp2/0 cells; 10 μM) was 0 percentage of control growth and the “mean percentage of control growth” value (Sp2/0 cells; 20 μM) was 0 percentage of control growth. For the same compound, the “mean percentage of control growth” value (CHO cells; 5 μM) was 50 percentage of control growth, the “mean percentage of control growth” value (CHO cells; 10 μM) was 74 percentage of control growth and the “mean percentage of control growth” value (CHO cells; 20 μM) was 52 percentage of control growth. The “β-galactosidase activity; D-MEM used” value (293 cells [2]) was 154 nanograms of β-galactosidase per 2×10^6 cells and the “β-galactosidase activity; Test Media used for complexing and to re-suspend cells” value (293 cells [2]) was 301 nanograms of β-galactosidase per 2×10^6 cells.

With “Ferrous Gluconate•Ascorbic Acid Phosphate” the “mean percentage of control growth” value (293 cells [1]; [3]) was 86 percentage of control growth, the “mean percentage of control growth” value (293 cells [1]; [4]) was 109 percentage of control growth and the “mean percentage of control growth” value (293 cells [1]; [5]) was 101 percentage of control growth. For the same compound, the “mean percentage of control growth” value (Sp2/0 cells; [6]) was 92 percentage of control growth, the “mean percentage of control growth” value (Sp2/0 cells; 50 μM) was 94 percentage of control growth and the “mean percentage of control growth” value (Sp2/0 cells; 100 μM) was 93 percentage of control growth. For the same compound, the “mean percentage of control growth” value (CHO cells; [6]) was 91 percentage of control growth, the “mean percentage of control growth” value (CHO cells; 50 μM) was 61 percentage of control growth and the “mean percentage of control growth” value (CHO cells; 100 μM) was 28 percentage of control growth. The “β-galactosidase activity; D-MEM used” value (293 cells [2]) was 116 nanograms of β-galactosidase per 2×10^6 cells and the “β-galactosidase activity; Test Media used for complexing and to re-suspend cells” value (293 cells [2]) was 275 nanograms of β-galactosidase per 2×10^6 cells.

In the case of Nitriloacetic Acid•Ferric Chloride, the “mean percentage of control growth” value (293 cells [1]; [3]) is reported as 100 percentage of control growth, the “mean percentage of control growth” value (293 cells [1]; [4]) is reported as 118 percentage of control growth and the “mean percentage of control growth” value (293 cells [1]; [5]) is reported as 74 percentage of control growth. The “mean percentage of control growth” value (Sp2/0 cells; [6]) was 88 percentage of control growth, the “mean percentage of control growth” value (Sp2/0 cells; 50 μM) was 87 percentage of control growth and the “mean percentage of control growth” value (Sp2/0 cells; 100 μM) was 70 percentage of control growth. The “mean percentage of control growth” value (CHO cells; [6]) was 127 percentage of control growth, the “mean percentage of control growth” value (CHO cells; 50 μM) was 107 percentage of control growth and the “mean percentage of control growth” value (CHO cells; 100 μM) was 107 percentage of control growth. The “β-galactosidase activity; D-MEM used” value (293 cells [2]) was 45 nanograms of β-galactosidase per 2×10^6 cells and the “β-galactosidase activity; Test Media used for complexing and to re-suspend cells” value (293 cells [2]) was 33 nanograms of β-galactosidase per 2×10^6 cells.
